# Measured values: PubChem BioAssay AID248 (DTP/NCI, 2004)
# “And” between values parts separate entries of the source, which are not always exact repeats. Equal entries are not always repeated. Toxic doses and inconclusive results are not listed.
# Tested on: L1210 leukemia ip in BDF1 mice, survival T/C
# Experiment: NCI In Vivo Anticancer Drug Screen. Data for tumor model L1210 Leukemia (intraperitoneal) in B6D2F1 (BDF1) mice
# Details: endpoint: mean survival time, higher = longer survival
# In short: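 Transplantable tumor model; survival measured in treated vs vehicle control mice. Value = treated/control.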
# [1] = dose: 15.0 mg/kg/injection, schedule: Q01DX Z (ip), vehicle: saline
# [2] = dose: 240.0 mg/kg/injection, schedule: Q01DX Z (ip), vehicle: saline
# [3] = dose: 100.0 mg/kg/injection, schedule: Q01DX009 (ip), vehicle: Klucel (hydroxypropylcellulose) (HPC)
# [4] = dose: 100.0 mg/kg/injection, schedule: Q04DX003 (ip), vehicle: Klucel (hydroxypropylcellulose) (HPC)
# [5] = dose: 200.0 mg/kg/injection, schedule: Q01DX009 (ip), vehicle: Klucel (hydroxypropylcellulose) (HPC)
# [6] = dose: 200.0 mg/kg/injection, schedule: Q04DX003 (ip), vehicle: Klucel (hydroxypropylcellulose) (HPC)
# [7] = dose: 400.0 mg/kg/injection, schedule: Q01DX009 (ip), vehicle: Klucel (hydroxypropylcellulose) (HPC)
# [8] = dose: 400.0 mg/kg/injection, schedule: Q04DX003 (ip), vehicle: Klucel (hydroxypropylcellulose) (HPC)
# [9] = dose: 100.0 mg/kg/injection, schedule: Q01DX009 (ip), vehicle: saline
# [10] = dose: 100.0 mg/kg/injection, schedule: Q04DX003 (ip), vehicle: saline
# [11] = dose: 200.0 mg/kg/injection, schedule: Q01DX009 (ip), vehicle: saline
# [12] = dose: 200.0 mg/kg/injection, schedule: Q04DX003 (ip), vehicle: saline
# [13] = dose: 400.0 mg/kg/injection, schedule: Q01DX009 (ip), vehicle: saline
# [14] = dose: 400.0 mg/kg/injection, schedule: Q04DX003 (ip), vehicle: saline
# [15] = dose: 100.0 mg/kg/injection, schedule: Q01DX001 (ip), vehicle: saline
# [16] = dose: 200.0 mg/kg/injection, schedule: Q01DX001 (ip), vehicle: saline
# [17] = dose: 400.0 mg/kg/injection, schedule: Q01DX001 (ip), vehicle: saline
compound,measurement,setting,value
O=C(Nc1ccc(C2=NCCN2)cc1)Nc1cccc(C(=O)Nc2ccc(C3=NCCN3)cc2)c1,T/C,"dose: 1.0 mg/kg/injection, schedule: Q01DX Z (ip), vehicle: carboxymethylcellulose (CMC)",106 % of control
same,T/C,"dose: 2.0 mg/kg/injection, schedule: Q01DX Z (ip), vehicle: carboxymethylcellulose (CMC)",117 % of control
same,T/C,"dose: 3.75 mg/kg/injection, schedule: Q01DX Z (ip), vehicle: saline",97 % of control
same,T/C,"dose: 4.0 mg/kg/injection, schedule: Q01DX Z (ip), vehicle: carboxymethylcellulose (CMC)",122 % of control
same,T/C,"dose: 7.5 mg/kg/injection, schedule: Q01DX Z (ip), vehicle: saline",100 % of control
same,T/C,"dose: 8.0 mg/kg/injection, schedule: Q01DX Z (ip), vehicle: carboxymethylcellulose (CMC)",150 % of control and 158 % of control
same,T/C,[1],110 % of control
same,T/C,"dose: 16.0 mg/kg/injection, schedule: Q01DX Z (ip), vehicle: carboxymethylcellulose (CMC)",225 % of control
same,T/C,"dose: 30.0 mg/kg/injection, schedule: Q01DX Z (ip), vehicle: carboxymethylcellulose (CMC)",154 % of control
same,T/C,"dose: 31.0 mg/kg/injection, schedule: Q01DX Z (ip), vehicle: carboxymethylcellulose (CMC)",250 % of control
same,T/C,"dose: 62.0 mg/kg/injection, schedule: Q01DX Z (ip), vehicle: carboxymethylcellulose (CMC)",207 % of control and 320 % of control
same,T/C,"dose: 120.0 mg/kg/injection, schedule: Q01DX Z (ip), vehicle: carboxymethylcellulose (CMC)",198 % of control
same,T/C,"dose: 120.0 mg/kg/injection, schedule: Q01DX Z (oral), vehicle: saline",101 % of control
same,T/C,"dose: 125.0 mg/kg/injection, schedule: Q01DX Z (ip), vehicle: carboxymethylcellulose (CMC)",200 % of control
same,T/C,[2],233 % of control
same,T/C,"dose: 240.0 mg/kg/injection, schedule: Q01DX Z (oral), vehicle: saline",101 % of control
same,T/C,"dose: 480.0 mg/kg/injection, schedule: Q01DX Z (oral), vehicle: saline",104 % of control
CCOC(=O)C(=Cc1cccc2ccccc12)C(=O)OCC,T/C,[3],98 % of control
same,T/C,[4],101 % of control
same,T/C,[5],105 % of control
same,T/C,[6],98 % of control
same,T/C,[7],93 % of control
same,T/C,[8],92 % of control
O=c1cc(-c2ccccc2)nc2ccccn12,T/C,"dose: 100.0 mg/kg/injection, schedule: Q01DX001 (ip), vehicle: saline with Tween-80",101 % of control
same,T/C,"dose: 200.0 mg/kg/injection, schedule: Q01DX001 (ip), vehicle: saline with Tween-80",101 % of control
same,T/C,"dose: 400.0 mg/kg/injection, schedule: Q01DX001 (ip), vehicle: saline with Tween-80",95 % of control
C[N+](C)(C)CC[N+](C)(C)C,T/C,[9],108 % of control
same,T/C,[10],100 % of control
same,T/C,[11],106 % of control
same,T/C,[12],110 % of control
same,T/C,[13],100 % of control
same,T/C,[14],97 % of control
CCOC(=O)/C(C#N)=C/c1ccc(O)cc1,T/C,"dose: 100.0 mg/kg/injection, schedule: Q01DX Z (ip), vehicle: methylcellulose (MC)",96 % of control
same,T/C,"dose: 200.0 mg/kg/injection, schedule: Q01DX Z (ip), vehicle: methylcellulose (MC)",96 % of control
CC(C)C(O)CC(=O)NN (stereo not drawn),T/C,[15],98 % of control
same,T/C,[16],110 % of control
same,T/C,[17],102 % of control
c1nc(SCC2CO2)c2ncn(CC3CO3)c2n1 (stereo not drawn),T/C,[15],107 % of control
same,T/C,[16],101 % of control
same,T/C,[17],97 % of control
CCC(C(OC(C)=O)C(C)C)[N+](=O)[O-] (stereo not drawn),T/C,"dose: 9.38 mg/kg/injection, schedule: Q01DX001 (ip), vehicle: other",104 % of control
same,T/C,"dose: 18.75 mg/kg/injection, schedule: Q01DX001 (ip), vehicle: other",105 % of control
C=C(C)Cc1cnc(SCc2ccccc2)[nH]c1=O,T/C,[3],93 % of control
same,T/C,[4],97 % of control
same,T/C,[5],91 % of control
same,T/C,[6],103 % of control
same,T/C,[7],94 % of control
same,T/C,[8],104 % of control
BrC12CCC(CC1)C1CCC2CC1,T/C,[9],90 % of control
same,T/C,[10],96 % of control
same,T/C,[11],87 % of control
same,T/C,[12],97 % of control
same,T/C,[13],88 % of control
same,T/C,[14],98 % of control
N#CC1(C#N)CC=CCC1(C#N)C#N,T/C,"dose: 12.5 mg/kg/injection, schedule: Q01DX009 (ip), vehicle: other",92 % of control
same,T/C,"dose: 25.0 mg/kg/injection, schedule: Q01DX009 (ip), vehicle: other",87 % of control
CC(C#N)(CCC(=O)O)N=NC(C)(C#N)CCC(=O)O (stereo not drawn),T/C,[15],102 % of control
same,T/C,[16],103 % of control
same,T/C,[17],108 % of control
CC(C)(C)c1cc(O)c(O)c(C(C)(C)C)c1,T/C,"dose: 25.0 mg/kg/injection, schedule: Q04DX003 (ip), vehicle: other",104 % of control
same,T/C,"dose: 50.0 mg/kg/injection, schedule: Q04DX003 (ip), vehicle: other",104 % of control
same,T/C,"dose: 100.0 mg/kg/injection, schedule: Q04DX003 (ip), vehicle: other",105 % of control
COC1CCC(CCNC(N)=O)CC1OC (stereo not drawn),T/C,"dose: 100.0 mg/kg/injection, schedule: Q04DX002 (ip), vehicle: Klucel (hydroxypropylcellulose) (HPC)",100 % of control
same,T/C,"dose: 200.0 mg/kg/injection, schedule: Q04DX002 (ip), vehicle: Klucel (hydroxypropylcellulose) (HPC)",117 % of control
same,T/C,"dose: 400.0 mg/kg/injection, schedule: Q04DX002 (ip), vehicle: Klucel (hydroxypropylcellulose) (HPC)",90 % of control
CC(Cc1ccccc1)Nc1ccccn1 (stereo not drawn),T/C,"dose: 75.0 mg/kg/injection, schedule: Q01DX001 (ip), vehicle: other",97 % of control
same,T/C,"dose: 150.0 mg/kg/injection, schedule: Q01DX001 (ip), vehicle: other",97 % of control
same,T/C,"dose: 300.0 mg/kg/injection, schedule: Q01DX001 (ip), vehicle: other",95 % of control
CCC(=O)C(=O)Cc1cc[n+]([O-])c2ccccc12,T/C,[4],102 % of control
same,T/C,[6],97 % of control
same,T/C,[8],113 % of control
CC(C)=CCN(CC=C(C)C)CCC(C(N)=O)c1cccc2ccccc12 (stereo not drawn),T/C,"dose: 6.25 mg/kg/injection, schedule: Q04DX003 (ip), vehicle: Klucel (hydroxypropylcellulose) (HPC)",93 % of control
same,T/C,"dose: 12.5 mg/kg/injection, schedule: Q04DX003 (ip), vehicle: Klucel (hydroxypropylcellulose) (HPC)",93 % of control
same,T/C,"dose: 25.0 mg/kg/injection, schedule: Q04DX003 (ip), vehicle: Klucel (hydroxypropylcellulose) (HPC)",98 % of control
O=C(O)c1cccc(N=Cc2ccc3c(c2)CCC3)c1,T/C,[4],94 % of control
same,T/C,[6],94 % of control
same,T/C,[8],95 % of control
Clc1nn2cnnc2c2ccccc12,T/C,"dose: 20.0 mg/kg/injection, schedule: Q04DX003 (ip), vehicle: saline",110 % of control
C1=CC2c3ccccc3C1c1ccccc12,T/C,"dose: 100.0 mg/kg/injection, schedule: Q01DX009 (sc), vehicle: olive oil, sesame oil, peanut oil",101 % of control
same,T/C,"dose: 100.0 mg/kg/injection, schedule: Q04DX003 (sc), vehicle: olive oil, sesame oil, peanut oil",102 % of control
same,T/C,"dose: 200.0 mg/kg/injection, schedule: Q01DX009 (sc), vehicle: olive oil, sesame oil, peanut oil",103 % of control
same,T/C,"dose: 200.0 mg/kg/injection, schedule: Q04DX003 (sc), vehicle: olive oil, sesame oil, peanut oil",95 % of control
same,T/C,"dose: 400.0 mg/kg/injection, schedule: Q01DX009 (sc), vehicle: olive oil, sesame oil, peanut oil",102 % of control
same,T/C,"dose: 400.0 mg/kg/injection, schedule: Q04DX003 (sc), vehicle: olive oil, sesame oil, peanut oil",93 % of control
Cc1cc(NC(=O)Nc2cccc(C3=NCCN3)c2)ccc1NC(=O)Nc1cccc(C2=NCCN2)c1,T/C,[1],93 % of control
same,T/C,"dose: 30.0 mg/kg/injection, schedule: Q01DX Z (ip), vehicle: saline",103 % of control
same,T/C,"dose: 60.0 mg/kg/injection, schedule: Q01DX Z (ip), vehicle: saline",109 % of control
same,T/C,[2],171 % of control
same,T/C,"dose: 480.0 mg/kg/injection, schedule: Q01DX Z (ip), vehicle: saline",192 % of control
Cc1ccc(C(=O)C2C3C=CC(C3)C2C(=O)c2ccc(C)cc2)cc1 (stereo not drawn),T/C,"dose: 75.0 mg/kg/injection, schedule: Q01DX009 (ip), vehicle: Klucel (hydroxypropylcellulose) (HPC)",95 % of control
same,T/C,"dose: 150.0 mg/kg/injection, schedule: Q01DX009 (ip), vehicle: Klucel (hydroxypropylcellulose) (HPC)",90 % of control
same,T/C,"dose: 300.0 mg/kg/injection, schedule: Q01DX009 (ip), vehicle: Klucel (hydroxypropylcellulose) (HPC)",95 % of control
CSc1nc(SC)c2[nH]cnc2n1,T/C,[3],100 % of control
same,T/C,[5],105 % of control
same,T/C,[7],98 % of control
CCn1nnnc1N,T/C,[10],91 % of control
same,T/C,[12],94 % of control
same,T/C,[14],102 % of control
